Measured values: US12234504B1 (priority 2023, dated 2025)
Positions of bridges follow the written chain, without caps; N, C: chain ends. Non-standard residues stand in square brackets, D forms with d. Residues, ends and D or L forms follow the SMILES beside them. *: point of attachment. Ileψ(thiazoline)Cys = CC[C@H](C)[C@H](N)C1=N[C@H](C(=O)*)CS1; dOrn = NCCC[C@@H](N)C(=O)O

Columns and labels:
E. coli DNA gyrase [1] = molecular target: T1, E. coli DNA gyrase (Escherichia coli, UniProt P0AES4+P0AES6); format: biochemical; conditions: 50 μM compound; for Fluorescent Intensity #1 / Fluorescent Intensity #2 / Mean Fluorescent Intensity: 50-compound library screen; for Fluorescent Intensity #1: duplicate 1; for Fluorescent Intensity #1 / Fluorescent Intensity #2: low fluorescence = gyrase poison; for Fluorescent Intensity #2: duplicate 2; for Mean Fluorescent Intensity: mean of duplicates; for hit in HTS pilot screen (inhibition ≥50% cutoff): duplicate
T1 construct: made in house
Experimental: FIGS. 6A-6B. High throughput screening (HTS) pilot screen of the 50-compound library for E. coli DNA gyrase poisoning inhibitors in duplicate. A final compound concentration of 50 μM was used. […] (A) Fluorescence raw data.
A Fluorescence-Based, T5 Exonuclease-Amplified DNA Cleavage Assay to Identify Poisoning Inhibitors for E. coli DNA Gyrase.
For negative control experiments, 1% DMSO was used. […] 0.5 mg/mL of proteinase K was then added to the reaction mixtures to digest DNA gyrase at 50° C. for 30 min. After the DNA samples were diluted 100 times using 1×NEB buffer 4 (20 mM Tris-Acetate, pH 7.9, 50 mM KAc, 10 mM Mg(AC)2, and 1 mM DTT), 30 μL of each DNA sample was transfer to a well of a 384-well plate. 200 nM of T5 exonuclease was used to digest DNA fragment for 2 hours at 37° C. 1×SYBR™ Green was added to all DNA samples. Fluorescence intensity was measured using a Biotek microplate reader with excitation wavelength of 497 nm and emission wavelength of 525 nm.
Z′ was calculated by the following equation: […]

E. coli DNA gyrase [2] = molecular target: T1, E. coli DNA gyrase; format: biochemical; conditions: validation with 10 antibiotics, FIG. 5A

T1 sequence (P0AES4 whole entry, one chain of several): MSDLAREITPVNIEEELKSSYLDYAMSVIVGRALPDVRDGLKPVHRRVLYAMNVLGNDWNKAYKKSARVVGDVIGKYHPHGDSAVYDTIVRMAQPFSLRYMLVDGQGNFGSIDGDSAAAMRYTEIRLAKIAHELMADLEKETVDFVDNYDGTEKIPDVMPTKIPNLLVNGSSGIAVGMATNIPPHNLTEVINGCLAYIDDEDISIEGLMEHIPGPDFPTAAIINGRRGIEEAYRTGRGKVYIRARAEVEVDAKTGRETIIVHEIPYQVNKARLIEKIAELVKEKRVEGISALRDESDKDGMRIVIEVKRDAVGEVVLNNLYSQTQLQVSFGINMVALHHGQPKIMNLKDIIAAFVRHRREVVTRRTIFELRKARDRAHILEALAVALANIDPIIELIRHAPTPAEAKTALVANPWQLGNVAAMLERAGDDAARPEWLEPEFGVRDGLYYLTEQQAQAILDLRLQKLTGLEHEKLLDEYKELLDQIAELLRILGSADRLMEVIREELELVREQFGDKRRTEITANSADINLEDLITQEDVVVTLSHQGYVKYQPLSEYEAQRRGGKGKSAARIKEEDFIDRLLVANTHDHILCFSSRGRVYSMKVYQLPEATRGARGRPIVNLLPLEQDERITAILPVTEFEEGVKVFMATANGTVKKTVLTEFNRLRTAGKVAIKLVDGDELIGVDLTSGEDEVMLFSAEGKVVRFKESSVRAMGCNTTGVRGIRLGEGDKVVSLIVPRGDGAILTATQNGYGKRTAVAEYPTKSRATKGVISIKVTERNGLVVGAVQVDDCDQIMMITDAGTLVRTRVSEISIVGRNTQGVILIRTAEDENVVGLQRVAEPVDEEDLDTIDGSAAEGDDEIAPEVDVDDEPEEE

| Molecule | Fluorescent Intensity #1 (E. coli DNA gyrase [1]) | Fluorescent Intensity #2 (E. coli DNA gyrase [1]) | Mean Fluorescent Intensity (E. coli DNA gyrase [1]) | hit in HTS pilot screen (inhibition ≥50% cutoff) (E. coli DNA gyrase [1]) | fluorescence intensity of the DNA samples (in words) (E. coli DNA gyrase [2]) |
| --- | --- | --- | --- | --- | --- |
| CN(C)[C@@H]1C(O)=C(C(N)=O)C(=O)[C@@]2(O)C(O)=C3C(=O)c4c(O)cccc4[C@@](C)(O)[C@H]3C[C@@H]12 [tertracycline] | 9594 | 9920 | 9757 |  |  |
| CCn1cc(C(=O)O)c(=O)c2cc(F)c(N3CCNCC3)cc21 [norfloxacin] |  |  |  | hits |  |
| CCN(CC)CCCC(C)Nc1ccnc2cc(Cl)ccc12 (centres unmarked) [chloroquine] |  | 8002 |  |  |  |
| Nc1ccc(S(N)(=O)=O)cc1 [sulfanilamide] |  |  |  |  | high |
| CC1(C)S[C@@H]2[C@H](NC(=O)[C@H](N)c3ccccc3)C(=O)N2[C@H]1C(=O)O [ampicillin] |  |  |  |  | high |
| polymyxin B sulfate salt | 6067 | 10508 | 8287.5 |  | high |
| CCn1cc(C(=O)O)c(=O)c2cc3c(cc21)OCO3 [oxolinic acid] |  |  |  | hits |  |
| O=C[C@H](O)[C@@H](O)[C@@H](O)CO [L-arabinose] | 4824 | 7032 | 5928 |  |  |
| O=C[C@H](O)[C@@H](O)[C@H](O)[C@H](O)CO [D-glucose] | 4444 | 5984 | 5214 |  |  |
| O=C[C@H](O)[C@@H](O)[C@@H](O)[C@H](O)CO [D-galactose] | 4111 | 6277 | 5194 |  |  |
| CCn1cc(C(=O)O)c(=O)c2cc(F)c(N3CCNC(C)C3)c(F)c21 (centres unmarked) [lomefloxacin] |  |  |  | hits |  |
| CCN1CCN(c2cc3c(cc2F)c(=O)c(C(=O)O)cn3C2CC2)CC1 [enrofloxacin] |  |  |  | hits |  |
| CC[C@H](C)[C@H](N)C1=N[C@H](C(=O)N[C@@H](CC(C)C)C(=O)N[C@H](CCC(=O)O)C(=O)N[C@H](C(=O)N[C@H]2CCCCNC(=O)[C@H](CC(N)=O)NC(=O)[C@@H](CC(=O)O)NC(=O)[C@H](Cc3cnc[nH]3)NC(=O)[C@@H](Cc3ccccc3)NC(=O)[C@H]([C@@H](C)CC)NC(=O)[C@@H](CCCN)NC2=O)[C@@H](C)CC)CS1 [bacitracin] ({Ileψ(thiazoline)Cys}-L[dE]IK[dOrn]I[dF]H[dD]N; lactam 4-C) | 7743 | 6533 | 7138 |  |  |
